Test results: patent US8987247B2, “Monoacylglycerol lipase inhibitors for the treatment of metabolic diseases and related disorders” (Janssen Pharmaceutica NV, priority 2011, dated 2015)
Marks after values point to notes of the source that are not given here.

Experiments:
Sprague-Dawley rats = experiment: Effect on Food Intake after Food Deprivation in Rats; type: in vivo, rat; settings: 30 mg/kg p.o., rats fasted 18 h, N=6/group
Experimental: In rats, food deprivation or restriction is a standard method for inducing increased food intake. In other words, depriving the rats of food and then subsequently presenting them with food results, predictably in over-eating (also referred to as rebound hyperphagia). To study the effect of compounds of formula (I) on feeding behavior, rats were treated after food deprivation.
Adult, male Sprague-Dawley rats were single-housed on a 12 h light/dark cycle and received food and water ad libitum, except where otherwise indicated. Rats were allowed to acclimate to the housing room for at least 1 week prior to testing. One day prior to treatment, each rat was transferred to a new cage that was free of bedding and contained a wire grid floor, and all food was removed. Rats were fasted for 18 h before treatment. Rats were divided into two groups (N=6/group) and received either a compound of formula (I) at 30 mg/kg, p.o. or vehicle. At dosing, all rats received a pre-measured amount of standard rodent chow. After 30 min, the food was re-weighed to determine the amount consumed.

rats, strain CD(SD)IGS = experiment: 5-Day Repeat Dose with Weight Monitoring in Rats; type: in vivo, rat; settings: for Mean body weight Change: Day −1 to Day 4
Experimental: Male and Female rats, strain CD(SD)IGS (Charles River Laboratories International, Inc., MA) of 8 weeks of age were individually housed and maintained on a 12-hr light/dark cycle. Rats were fed ad libitum with a standard diet (Rodent Diet 5001, PMI Nutrition International, Indiana). […] Rats were weighed predose and on days 1 and 4. Clinical observations were recorded prior to dosing, at 2 hours post-dose each day. Rats were fasted overnight on Day 4 and blood was collected on Day 5 from the retro-orbital sinus following anesthesia with a 70/30% carbon dioxide/oxygen mixture. Blood was collected into tubes containing tripotassium EDTA for hematology panel and no additive for serum chemistry determinations. Rats were euthanized by CO2 inhalation and thoracic and abdominal cavities were examined and weights of liver determined.

beagle dogs = experiment: 5-Day Repeat Dose with Weight Monitoring in Dogs; type: in vivo, dog; design: key to Clinical Observations: Stained urogenital area (no. of dogs) / Body Temperature Change / Body Weight Change: —: No noteworthy findings; settings: for Body Weight Change: 5 days, Day-1 to Day 5; for Body Temperature Change: 4 hours postdose on Day 0
Experimental: Male and female beagle dogs, 15 months of age, were individually housed and maintained on a 12-hourlight/dark cycle. Dogs were given 300 g/day of Advanced Protocol™ Non-Certified High Density Canine Diet 5L18 (pMfID Nutrition International). Food was provided 0.5 to 2 hours post-dose, except on days of toxicokinetic blood sampling when food was provided after the 4 hour time point. Canned food was supplemented beginning on day 3. A compound of formula (I) was administered orally via gavage using a stomach tube once daily (initiating on Day 0) to male and female dogs (1 each per dose) for 5 consecutive days at 0, 5, 15 and 45 mg/kg/day. Dogs were weighed on Day-1 and Day 5 prior to necropsy. Food consumption was determined 3 days predose and then daily. Body temperature was measured at 0 (predose), 4 and 24 hours on Days 0 and 4. Clinical observations were recorded predose and 2 hours postdose daily. Dogs were fasted overnight prior to blood collection. Blood was collected from all dogs predose on Day-8 and prior to dosing on Day 4 from the jugular vein. Blood was collected into tubes containing tripotassium EDTA for hematology and no additive for serum chemistry determinations. At necropsy, the thoracic and abdominal cavities were examined.

For `O=C(c1ccc2c(ccn2-c2ccc(F)cc2)c1)N1CC(N2CCN(C(=O)c3nccs3)CC2)C1` [Cpd 1, 1-(4-Fluorophenyl)-5-({3-[4-(1,3-thiazol-2-ylcarbonyl)piperazin-1-yl]azetidin-1-yl}carbonyl)-1H-indole], the “Food Intake (g of food over 30 min)” value (Sprague-Dawley rats) was 1.60 ± 1.02 g, the Mean body weight (rats, strain CD(SD)IGS; female rats, 15 mg/kg/day oral, Day 4) was 226.98 +/− 10.29 and the Mean body weight (rats, strain CD(SD)IGS; female rats, 15 mg/kg/day oral, Day −1 (predose)) was 203.86 +/− 6.13. For the same compound, the Mean body weight (rats, strain CD(SD)IGS; female rats, 50 mg/kg/day oral, Day −1 (predose)) was 199.16 +/− 5.66, the “Mean body weight Change” value (rats, strain CD(SD)IGS; female rats, 50 mg/kg/day oral) was 8.54 +/− 2.32 and the Mean body weight (rats, strain CD(SD)IGS; male rats, 15 mg/kg/day oral, Day 4) was 301.94 +/− 7.52. The Mean body weight (rats, strain CD(SD)IGS; male rats, 15 mg/kg/day oral, Day −1 (predose)) was 273.34 +/− 4.80, the “Mean body weight Change” value (rats, strain CD(SD)IGS; male rats, 15 mg/kg/day oral) was 28.60 +/− 2.90 and the Mean body weight (rats, strain CD(SD)IGS; male rats, 50 mg/kg/day oral, Day 4) was 278.78 +/− 6.95. For the same compound, the Mean body weight (rats, strain CD(SD)IGS; male rats, 50 mg/kg/day oral, Day −1 (predose)) was 272.66 +/− 6.92, the “Mean body weight Change” value (rats, strain CD(SD)IGS; male rats, 50 mg/kg/day oral) was 6.10 +/− 3.56* and the “Clinical Observations: Emesis (no. of dogs)” value (beagle dogs; dog F:1, 5 mg/kg daily oral) was 1. For the same compound, the “Clinical Observations: Feces, absent (no. of dogs)” value (beagle dogs; dog F:1, 5 mg/kg daily oral) was 1, the “Clinical Observations: Feces, decrease (no. of dogs)” value (beagle dogs; dog F:1, 5 mg/kg daily oral) was 1 and the “Clinical Observations: Stained urogenital area (no. of dogs)” value (beagle dogs; dog F:1, 5 mg/kg daily oral) was “—”. For the same compound, the “Food Consumption” value (beagle dogs; dog F:1, 5 mg/kg daily oral) was “↓”, the “Body Weight Change” value (beagle dogs; dog F:1, 5 mg/kg daily oral) was −0.90 and the “Body Temperature Change” value (beagle dogs; dog F:1, 5 mg/kg daily oral) was −3.2. For the same compound, the “Clinical Observations: Emesis (no. of dogs)” value (beagle dogs; dog F:1, 15 mg/kg daily oral) was 1, the “Clinical Observations: Feces, absent (no. of dogs)” value (beagle dogs; dog F:1, 15 mg/kg daily oral) was 1 and the “Clinical Observations: Feces, decrease (no. of dogs)” value (beagle dogs; dog F:1, 15 mg/kg daily oral) was 1. For the same compound, the “Clinical Observations: Stained urogenital area (no. of dogs)” value (beagle dogs; dog F:1, 15 mg/kg daily oral) was 1, the “Food Consumption” value (beagle dogs; dog F:1, 15 mg/kg daily oral) was “↓” and the “Body Weight Change” value (beagle dogs; dog F:1, 15 mg/kg daily oral) was “—”. The “Body Temperature Change” value (beagle dogs; dog F:1, 15 mg/kg daily oral) was −1.6, the “Clinical Observations: Emesis (no. of dogs)” value (beagle dogs; dog F:1, 45 mg/kg daily oral) was 1 and the “Clinical Observations: Feces, absent (no. of dogs)” value (beagle dogs; dog F:1, 45 mg/kg daily oral) was 1. For the same compound, the “Clinical Observations: Feces, decrease (no. of dogs)” value (beagle dogs; dog F:1, 45 mg/kg daily oral) was 1, the “Clinical Observations: Stained urogenital area (no. of dogs)” value (beagle dogs; dog F:1, 45 mg/kg daily oral) was 1 and the “Food Consumption” value (beagle dogs; dog F:1, 45 mg/kg daily oral) was “↓”. For the same compound, the “Body Weight Change” value (beagle dogs; dog F:1, 45 mg/kg daily oral) was −1.28, the “Body Temperature Change” value (beagle dogs; dog F:1, 45 mg/kg daily oral) was “—” and the “Clinical Observations: Emesis (no. of dogs)” value (beagle dogs; dog M:1, 5 mg/kg daily oral) was 1. The “Clinical Observations: Feces, absent (no. of dogs)” value (beagle dogs; dog M:1, 5 mg/kg daily oral) was 1, the “Clinical Observations: Feces, decrease (no. of dogs)” value (beagle dogs; dog M:1, 5 mg/kg daily oral) was 1 and the “Clinical Observations: Stained urogenital area (no. of dogs)” value (beagle dogs; dog M:1, 5 mg/kg daily oral) was “—”. The “Food Consumption” value (beagle dogs; dog M:1, 5 mg/kg daily oral) was “↓”, the “Body Weight Change” value (beagle dogs; dog M:1, 5 mg/kg daily oral) was −1.10 and the “Body Temperature Change” value (beagle dogs; dog M:1, 5 mg/kg daily oral) was −3.4. For the same compound, the “Clinical Observations: Emesis (no. of dogs)” value (beagle dogs; dog M:1, 15 mg/kg daily oral) was 1, the “Clinical Observations: Feces, absent (no. of dogs)” value (beagle dogs; dog M:1, 15 mg/kg daily oral) was 1 and the “Clinical Observations: Feces, decrease (no. of dogs)” value (beagle dogs; dog M:1, 15 mg/kg daily oral) was 1. For the same compound, the “Clinical Observations: Stained urogenital area (no. of dogs)” value (beagle dogs; dog M:1, 15 mg/kg daily oral) was 1, the “Food Consumption” value (beagle dogs; dog M:1, 15 mg/kg daily oral) was “↓” and the “Body Weight Change” value (beagle dogs; dog M:1, 15 mg/kg daily oral) was −0.74. For the same compound, the “Body Temperature Change” value (beagle dogs; dog M:1, 15 mg/kg daily oral) was “—”, the “Clinical Observations: Emesis (no. of dogs)” value (beagle dogs; dog M:1, 45 mg/kg daily oral) was 1 and the “Clinical Observations: Feces, absent (no. of dogs)” value (beagle dogs; dog M:1, 45 mg/kg daily oral) was 1. The “Clinical Observations: Feces, decrease (no. of dogs)” value (beagle dogs; dog M:1, 45 mg/kg daily oral) was 1, the “Clinical Observations: Stained urogenital area (no. of dogs)” value (beagle dogs; dog M:1, 45 mg/kg daily oral) was 1 and the “Food Consumption” value (beagle dogs; dog M:1, 45 mg/kg daily oral) was “↓”. For the same compound, the “Body Weight Change” value (beagle dogs; dog M:1, 45 mg/kg daily oral) was −0.78 and the “Body Temperature Change” value (beagle dogs; dog M:1, 45 mg/kg daily oral) was −1.9.
